Measured values as given in patent US20100087649A1, “QUINOLINONE DERIVATIVES” (priority 2006, published 2010).

How the values were obtained:
[1] = test system: wild-type HIV-IIIB strain; experiment: Antiviral analysis EGFP: anti-HIV activity in MT4 LTR-EGFP cells; format: cell-based, HIV-1; details: Human immunodeficiency virus 1, 72 h, fluorescence of HIV-infected cells reduced by 50%, three days after infection
In short: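 MT4 T-cells carrying an HIV-1 LTR-driven EGFP reporter were infected with HIV-IIIB; fluorescence was measured by scanning microscope image analysis three days post-infection. EC50 (μM) is the concentration cutting infected-cell fluorescence by 50%; CC50 is the same on mock-infected cells.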

[2] = Cytotoxicity in mock-infected MT4 CMV-EGFP cells; format: cell-based, human; details: human, fluorescence reduced by 50%

SMILES	EC50 [1]	CC50 at 3 days [2]
Cc1ccc(-n2c(=O)c(C#N)cc3ccc(NCCCN4CCCC4)cc32)cc1C#N [compound 157]	0.89 µM	52.7 µM
N#Cc1cc2ccccc2n(-c2ccc([N+](=O)[O-])cc2)c1=O [compound 1]	2.89 µM	> 100 µM
N#Cc1cc2ccc(-n3cnnc3)cc2n(-c2ccc([N+](=O)[O-])cc2)c1=O [compound 26]	80.9 µM	> 100 µM
N#Cc1cc2ccc(O)cc2n(-c2ccc([N+](=O)[O-])cc2)c1=O [compound 10]	13.3 µM	> 32 µM
N#Cc1cc2cccnc2n(-c2ccc([N+](=O)[O-])cc2)c1=O [compound 99]	19.3 µM	> 32 µM
Cc1ccc(-n2c(=O)c(C#N)cc3ccc(-c4cccc(CNC(=O)CN(C)C)c4)cc32)cc1C#N [compound 158]	0.21 µM	11.5 µM
Cc1ccc(-n2c(=O)c(C#N)cc3ccc(OCCCN(C)C)cc32)cc1C#N [compound 147]	0.85 µM	83.9 µM
Cc1ccc(-n2c(=O)c(C#N)c(N)c3ccc(Br)cc32)cc1C#N [compound 121]	0.75 µM	55.2 µM
N#Cc1cc2ccc(-n3ccnc3)cc2n(-c2ccc([N+](=O)[O-])cc2)c1=O [compound 27]	1.13 µM	> 100 µM
COc1ccc2c(c1)cc(C#N)c(=O)n2-c1ccc([N+](=O)[O-])cc1 [compound 83]	> 32 µM	> 32 µM
Cc1ccc(-n2c(=O)c(C#N)cc3ccc(Br)cc32)cc1C#N [compound 149]	2.74 µM	> 100 µM
N#Cc1c(N)c2ccc(Br)cc2n(-c2ccc([N+](=O)[O-])cc2)c1=O [compound 118]	0.72 µM	> 32 µM
Cc1c(C#N)c(=O)n(-c2ccc([N+](=O)[O-])cc2)c2ccccc12 [compound 7]	9.34 µM	> 100 µM
Cc1ccc(-n2c(=O)c(C#N)c(N)c3ccc(-c4ccccn4)cc32)cc1C#N [compound 123]	> 100 µM	> 100 µM
N#Cc1cc2cc(O)c(O)cc2n(-c2ccc([N+](=O)[O-])cc2)c1=O [compound 94]	> 32 µM	> 32 µM
Cc1ccc(-n2c(=O)c(C#N)cc3ccc(-c4cc[nH]c4)cc32)cc1C#N [compound 150]	0.56 µM	> 100 µM
N#Cc1cc2ccc(OCCNCCO)cc2n(-c2ccc([N+](=O)[O-])cc2)c1=O [compound 71]	> 32 µM	> 32 µM
Cc1ccc(-n2c(=O)c(C#N)c(NCCN)c3ccccc32)cc1C#N [compound 164]	0.63 µM	12.9 µM
N#Cc1c(NCCN2CCCC2)c2ccccc2n(-c2ccc([N+](=O)[O-])cc2)c1=O [compound 130]	3.71 µM	> 100 µM
Cc1ccc(-n2c(=O)c(C#N)cc3ccc(OCCCN4CCCC4)cc32)cc1C#N [compound 148]	0.64 µM	51.5 µM
